Results reported in publication PMC8483441 (Journal of Medicinal Chemistry, 2021).
In brackets after ≈: the same amount, converted by molar mass. Read-outs that look alike come from different tables or passages of the source. Square brackets hold non-standard residues; d marks the D form. Peptide text beside a SMILES is read from it. Orn = NCCC[C@H](N)C(=O)O

Tests used:
[1] = test system: E. coli; assay type: cell-based, Escherichia coli; conditions: 24 h
Experimental: (§1) Human serum was purchased from Sigma (St Louis, USA).
(§2) Incubations were kept at 37 °C for 24 h. Results are the average of three independent studies.

[2] = test system: A. baumannii; assay type: cell-based, Acinetobacter baumannii; conditions: 24 h
Experimental: as §1, §2

[3] = test system: Pseudomonas sp.; test: MIC, broth microdilution; assay type: cell-based; conditions: Pseudomonas sp. ATCC 15915; Mueller-Hinton medium, 5 × 10^5 CFU/mL, 37 °C, 24 h; average of three independent studies
Experimental: as §1, §2

[4] = test system: S. enterica; assay type: cell-based, Salmonella enterica; conditions: 24 h
Experimental: as §1, §2

[5] = test system: S. flexneri; conditions: 24 h
From the text: Purified horse red blood cells were acquired from Thermo Fisher Scientific (Hampshire, England). Human serum was purchased from Sigma (St Louis, USA). E. coli was obtained from the Coli Genetic Stock Center (BW25113). S. flexneri (ATCC 29903), A. baumannii (ATCC 15308), Pseudomonas sp. (ATCC 15915), and S. enterica (ATCC 14028) were obtained from the CECT (Valencia, Spain). Clinical strains were supplied by the Vall d’Hebron Hospital (Barcelona, Spain). MRC5 fibroblasts were obtained from the Cytometry and Cell Culture Facility (SCAC, UAB) and originally purchased from ATCC.
The antibiotic activity was defined by the minimum peptide concentration where the microorganism is unable to grow. The assay was done in polypropylene 96-well plates (Greiner, Frickenhausen, Germany) to avoid peptide binding to plate wells. Peptides were dissolved in water containing 0.4% w/v bovine serum albumin (BSA) and 0.02% v/v glacial acetic acid to prevent self-aggregation, following the reference protocol by Wiegand et al.,[42] based on the classical microtiter broth dilution recommended by the […]. Initial bacteria inoculum was adjusted to 5 × 10^5 CFU/mL in Mueller-Hinton (MH) medium. Incubations were kept at 37 °C for 24 h. Results are the average of three independent studies. MIC assays in the presence of serum were performed by incubating the peptide with human serum at a 1:1 ratio. Then, 10^6 cfu/mL of Pseudomonas sp. were incubated with serial dilutions of the peptides for 4 h. To determine the MBC, 50 μL from all wells were seeded into Petri plates and incubated for 24 h. The MBC concentration was attributed to the lowest concentration without detectable bacterial growth for each peptide.

[6] = test system: horse red blood cells; test: Hemolytic activity; assay type: cell-based
Experimental: The peptide toxicity was determined detecting the disruption of horse red blood cells, following a previous assay report.[35] 10-fold diluted cells in PBS were centrifuged three times at 800g to eliminate the hemoglobin from disrupted cells. After the last resuspension, erythrocytes were incubated with the peptides for 4 h at 37 °C. The detection was done measuring the supernatant absorbance in a VICTOR3 multilabel plate reader (Perkin Elmer, Waltham, Massachusetts) at 540 nm in a microplate reader. Percentage of hemolysis was calculated through a pattern done with dilutions of total cell lysis done with a 1% Triton X-100 buffer. Results are the average of three independent studies.

[7] = Cytotoxicity in mammalian cells (MTT assay); assay type: cell-based; conditions: MRC-5 cytotoxicity (IC50)
Experimental: (§3) MRC-5 cells were grown in Eagle’s minimum essential medium (MEMα), supplemented with 10% fetal bovine serum (FBS). 96-well plates were seeded with 3 × 10^4 cells/well and cultured overnight in order to get cells adhered into the plate and then incubated with two-fold peptide serial dilutions. After 4 h of incubation, the medium containing the peptides was replaced by MEMα supplemented with FBS and 3-(4,5-dimethylthiazol-2-yl)-2,5-diphenyltetrazolium bromide (MTT) at 0.4 mg/mL and incubated for 150 min. Detection of formazan crystals in the living cells was done by cell disruption by addition of 200 μL of dimethyl sulfoxide (DMSO) followed by absorbance measuring at 600 nm in a Tecan Infinite F Nano+ microplate reader (Tecan, Germany). Results are the average of three independent studies.

[8] = test system: MRC-5 cells; test: Cytotoxicity in mammalian cells (MTT assay); assay type: cell-based
Experimental: as §3

[9] = test system: Acinetobacter baumannii; assay type: cell-based; conditions: 24 h
Experimental: as §2

[10] = test system: Escherichia coli; assay type: cell-based; conditions: 24 h
Experimental: as §2

[11] = test system: Salmonella enterica; assay type: cell-based; conditions: 24 h
Experimental: as §2

[12] = test system: Pseudomonas sp.; test: Minimum bactericidal concentration (MBC); assay type: cell-based; conditions: 50 μL from MIC wells seeded into Petri plates, 24 h; lowest concentration without detectable growth
Experimental: as §2

[13] = test system: Pseudomonas sp.; test: MIC of peptides incubated with human serum; assay type: cell-based; conditions: peptide incubated with human serum 1:1; 10^6 cfu/mL Pseudomonas sp., 4 h
Experimental: as §2

[14] = test system: Shigella flexneri; conditions: 50 μL from MIC wells seeded into Petri plates, 24 h; lowest concentration without detectable growth
Experimental: The antibiotic activity was defined by the minimum peptide concentration where the microorganism is unable to grow. The assay was done in polypropylene 96-well plates (Greiner, Frickenhausen, Germany) to avoid peptide binding to plate wells. Peptides were dissolved in water containing 0.4% w/v bovine serum albumin (BSA) and 0.02% v/v glacial acetic acid to prevent self-aggregation, following the reference protocol by Wiegand et al.,[42] based on the classical microtiter broth dilution recommended by the National Committee of Laboratory Safety and Standards (NCLSS). Initial bacteria inoculum was adjusted to 5 × 10^5 CFU/mL in Mueller-Hinton (MH) medium. Incubations were kept at 37 °C for 24 h. Results are the average of three independent studies. […] To determine the MBC, 50 μL from all wells were seeded into Petri plates and incubated for 24 h. The MBC concentration was attributed to the lowest concentration without detectable bacterial growth for each peptide.

[15] = test system: A. baumannii 3862; test: MIC, clinical bacterial strain; assay type: cell-based
Experimental: as §1, §2

[16] = test system: A. baumannii 3878; test: MIC, clinical bacterial strain; assay type: cell-based
Experimental: as §1, §2

[17] = test system: A. baumannii 3879; test: MIC, clinical bacterial strain; assay type: cell-based
Experimental: as §1, §2

[18] = test system: A. baumannii 3880; test: MIC, clinical bacterial strain; assay type: cell-based
Experimental: as §1, §2

[19] = test system: E. coli 116878; test: MIC, clinical bacterial strain; assay type: cell-based
Experimental: as §1, §2

[20] = test system: E. coli cf073; test: MIC, clinical bacterial strain; assay type: cell-based
Experimental: as §1, §2

[21] = test system: P. aeruginosa 827632; test: MIC, clinical bacterial strain; assay type: cell-based
Experimental: as §1, §2

[22] = test system: P. aeruginosa 827651; test: MIC, clinical bacterial strain; assay type: cell-based
Experimental: as §1, §2

[23] = test system: S. typhimurium 324; test: MIC, clinical bacterial strain; assay type: cell-based
Experimental: as §1, §2

[24] = test system: S. typhimurium 365; test: MIC, clinical bacterial strain; assay type: cell-based
Experimental: as §1, §2

Compound | MIC E. coli [1] [µM] | MIC A. baumannii [2] [µM] | MIC Pseudomonas sp. [3] [µM] | MIC S. enterica [4] [µM] | MIC S. flexneri [5] [µM] | hemolysis % (250 μM peptide) ([6]; red cells of horse, 4 h, 250) [%] | IC50 [7] [µM] | MBC Acinetobacter baumannii [9] [µM] | MBC Escherichia coli [10] [µM] | MBC Salmonella enterica [11] [µM] | MBC Pseudomonas sp. [12] [µM] | MBC Shigella flexneri [14] [µM] | other results
CC[C@H](C)[C@H](NC(=O)[C@H](C)NC(=O)[C@H](CCCN)NC(=O)[C@H](CCSC)NC(=O)[C@H](C)NC(=O)[C@@H](NC(=O)[C@@H](NC(=O)[C@H](CCCN)NC(=O)[C@@H]1CCCN1C(=O)[C@H](CO)NC(=O)[C@@H](NC(=O)[C@H](Cc1c[nH]cn1)NC(=O)[C@H](CCC(N)=O)NC(=O)[C@@H](NC(=O)[C@H](C)NC(=O)[C@H](Cc1ccccc1)NC(=O)[C@H](Cc1c[nH]c2ccccc12)NC(=O)[C@H](CCC(N)=O)NC(=O)[C@H](C)NC(=O)[C@H](CCCN)NC(=O)[C@@H](NC(=O)[C@H](Cc1ccccc1)NC(=O)[C@@H]1CCCN1C(=O)[C@@H](N)CCCN)[C@@H](C)O)[C@@H](C)CC)[C@@H](C)CC)[C@@H](C)O)[C@@H](C)CC)C(=O)N[C@@H](CC(N)=O)C(=O)N[C@@H](CC(N)=O)C(=O)N[C@@H](Cc1ccc(O)cc1)C(=O)N[C@@H](CCCN)C(=O)N[C@@H](Cc1c[nH]c2ccccc12)C(=O)N[C@@H](CCCN)C(N)=O [peptide 2] (H-[Orn]PFT[Orn]AQWFAIQHISP[Orn]TIAM[Orn]AINNY[Orn]W[Orn]-NH2) | 6.25 (≈ 21.9 µg/mL) | 6.25 (≈ 21.9 µg/mL) | 6.25 (≈ 21.9 µg/mL) | 25 (≈ 87.6 µg/mL) | 12.5 (≈ 43.8 µg/mL) | 10 ± 2 | ≤ 180 | 6.25 (≈ 21.9 µg/mL) | 6.25 (≈ 21.9 µg/mL) | 25 (≈ 87.6 µg/mL) | 6.25 (≈ 21.9 µg/mL) | 12.5 (≈ 43.8 µg/mL) | hemolysis % (250 μM peptide) [6]: 10%; IC50 ([8]; 4 h): 113 ± 8 µM; MIC in Pseudomonas sp., peptides incubated with human serum [13]: 50 µM
CC[C@H](C)[C@H](NC(=O)[C@H](C)NC(=O)[C@H](CCCN)NC(=O)[C@H](CCSC)NC(=O)[C@H](C)NC(=O)[C@@H](NC(=O)[C@@H](NC(=O)[C@H](CCCN)NC(=O)[C@@H]1CCCN1C(=O)[C@H](CO)NC(=O)[C@@H](NC(=O)[C@H](Cc1c[nH]cn1)NC(=O)[C@H](CCC(N)=O)NC(=O)[C@@H](NC(=O)[C@H](C)NC(=O)[C@H](Cc1ccccc1)NC(=O)[C@H](Cc1c[nH]c2ccccc12)NC(=O)[C@H](CCC(N)=O)NC(=O)[C@H](C)NC(=O)[C@H](CCCN)NC(=O)[C@@H](NC(=O)[C@@H](N)Cc1ccccc1)[C@@H](C)O)[C@@H](C)CC)[C@@H](C)CC)[C@@H](C)O)[C@@H](C)CC)C(=O)N[C@@H](CC(N)=O)C(=O)N[C@@H](CC(N)=O)C(=O)N[C@@H](Cc1ccc(O)cc1)C(=O)N[C@@H](CCCN)C(=O)N[C@@H](Cc1c[nH]c2ccccc12)C(=O)N[C@@H](CCCN)C(N)=O [peptide 5] (H-FT[Orn]AQWFAIQHISP[Orn]TIAM[Orn]AINNY[Orn]W[Orn]-NH2) | 25 (≈ 82.3 µg/mL) | >100 | 25 (≈ 82.3 µg/mL) | >100 | 50 (≈ 165 µg/mL) | 11 ± 4 | > 300 | > 100 | 25 (≈ 82.3 µg/mL) | > 100 | 25 (≈ 82.3 µg/mL) | 50 (≈ 165 µg/mL) | MRC-5 cytotoxicity (IC50) [8]: No toxicity was detected
CC[C@H](C)[C@H](NC(=O)[C@H](C)NC(=O)[C@H](CCCN)NC(=O)[C@H](CCSC)NC(=O)[C@H](C)NC(=O)[C@@H](NC(=O)[C@@H](NC(=O)[C@H](CCCN)NC(=O)[C@@H]1CCCN1C(=O)[C@H](CO)NC(=O)[C@@H](NC(=O)[C@H](Cc1c[nH]cn1)NC(=O)[C@H](CCC(N)=O)NC(=O)[C@@H](NC(=O)[C@H](C)NC(=O)[C@H](Cc1ccccc1)NC(=O)[C@H](Cc1c[nH]c2ccccc12)NC(=O)[C@H](CCC(N)=O)NC(=O)[C@H](C)NC(=O)[C@H](CCCN)NC(=O)[C@@H](NC(=O)[C@H](Cc1ccccc1)NC(=O)[C@H]1CCCN1C(=O)[C@@H](N)CCCN)[C@@H](C)O)[C@@H](C)CC)[C@@H](C)CC)[C@@H](C)O)[C@@H](C)CC)C(=O)N[C@@H](CC(N)=O)C(=O)N[C@@H](CC(N)=O)C(=O)N[C@@H](Cc1ccc(O)cc1)C(=O)N[C@@H](CCCN)C(=O)N[C@@H](Cc1c[nH]c2ccccc12)C(=O)N[C@@H](CCCN)C(N)=O [peptide 6] (H-[Orn][dP]FT[Orn]AQWFAIQHISP[Orn]TIAM[Orn]AINNY[Orn]W[Orn]-NH2) | 3.13 (≈ 11 µg/mL) | 12.5 (≈ 43.8 µg/mL) | 1.56 (≈ 5.47 µg/mL) | 50 (≈ 175 µg/mL) | 50 (≈ 175 µg/mL) | 1.1 ± 0.9 | 230 ± 40 | 12.5 (≈ 43.8 µg/mL) | 3.13 (≈ 11 µg/mL) | 50 (≈ 175 µg/mL) | 1.56 (≈ 5.47 µg/mL) | 50 (≈ 175 µg/mL) | MIC A. baumannii 3862 [15]: 1.56 µM (≈ 5.47 µg/mL); MIC A. baumannii 3878 [16]: 0.78 µM (≈ 2.73 µg/mL); MIC A. baumannii 3879 [17]: 3.13 µM (≈ 11 µg/mL); MIC A. baumannii 3880 [18]: 12.5 µM (≈ 43.8 µg/mL); MIC E. coli 116878 [19]: 25 µM (≈ 87.6 µg/mL); MIC E. coli cf073 [20]: 6.25 µM (≈ 21.9 µg/mL); MIC P. aeruginosa 827632 [21]: >100 µM; MIC P. aeruginosa 827651 [22]: 25 µM (≈ 87.6 µg/mL); MIC S. typhimurium 324 [23]: 25 µM (≈ 87.6 µg/mL); MIC S. typhimurium 365 [24]: 25 µM (≈ 87.6 µg/mL)
